Experimental data from patent publication US8598344B2, “CDKI pathway inhibitors and uses thereof” (Senex Biotechnology, priority 2009, dated 2013).

Columns and labels:
Assay in all cases: KinomeScan competition binding assay
STK16 = biological target: T1, STK16 (Homo sapiens, UniProt O75716); settings: 10 μM compound
T1 construct: purchased KinomeScan, a division of Ambit Biosciences
How it was run: (§1)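 Test compound competes with an immobilized, ATP-site-directed ligand for binding to DNA-tagged kinase. Kinase remaining on the ligand is quantified by qPCR of the DNA tag. Values are reported as percent of control binding or as binding constants (Kd).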

FLT3 (D835Y) = biological target: T2, FLT3 (D835Y) (Homo sapiens, UniProt P36888, D835Y); settings: 10 μM compound
T2 construct: purchased KinomeScan, a division of Ambit Biosciences
T2 sequence (P36888 27-993 D835Y): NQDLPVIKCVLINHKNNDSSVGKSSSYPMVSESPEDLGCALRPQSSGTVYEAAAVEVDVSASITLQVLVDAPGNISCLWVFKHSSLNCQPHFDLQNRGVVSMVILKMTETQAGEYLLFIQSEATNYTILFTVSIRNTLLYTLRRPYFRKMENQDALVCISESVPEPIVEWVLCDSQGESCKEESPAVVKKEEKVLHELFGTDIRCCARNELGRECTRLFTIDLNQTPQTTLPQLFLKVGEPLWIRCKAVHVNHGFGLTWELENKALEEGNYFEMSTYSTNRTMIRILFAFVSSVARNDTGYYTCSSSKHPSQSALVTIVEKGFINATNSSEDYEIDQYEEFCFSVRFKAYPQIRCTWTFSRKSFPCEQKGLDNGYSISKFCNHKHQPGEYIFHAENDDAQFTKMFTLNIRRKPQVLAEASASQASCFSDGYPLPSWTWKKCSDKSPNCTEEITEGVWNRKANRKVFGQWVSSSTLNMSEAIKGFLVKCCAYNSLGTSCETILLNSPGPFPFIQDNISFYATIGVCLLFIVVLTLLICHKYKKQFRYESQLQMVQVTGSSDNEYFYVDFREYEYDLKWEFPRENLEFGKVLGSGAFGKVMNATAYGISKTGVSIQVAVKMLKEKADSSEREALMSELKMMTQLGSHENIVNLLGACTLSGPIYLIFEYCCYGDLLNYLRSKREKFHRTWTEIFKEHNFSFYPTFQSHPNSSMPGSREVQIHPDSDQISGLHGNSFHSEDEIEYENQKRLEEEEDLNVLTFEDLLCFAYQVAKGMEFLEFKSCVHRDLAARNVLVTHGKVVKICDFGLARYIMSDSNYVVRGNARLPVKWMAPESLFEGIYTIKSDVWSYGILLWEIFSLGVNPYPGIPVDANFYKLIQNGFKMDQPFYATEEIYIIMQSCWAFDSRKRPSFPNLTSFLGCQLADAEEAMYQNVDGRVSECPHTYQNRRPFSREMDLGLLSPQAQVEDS
How it was run: as §1

PIK3CA (I800L) = biological target: T3, PIK3CA (I800L) (Homo sapiens, UniProt P42336, I800L); settings: 10 μM compound
T3 construct: purchased KinomeScan, a division of Ambit Biosciences
T3 sequence (P42336 whole entry I800L): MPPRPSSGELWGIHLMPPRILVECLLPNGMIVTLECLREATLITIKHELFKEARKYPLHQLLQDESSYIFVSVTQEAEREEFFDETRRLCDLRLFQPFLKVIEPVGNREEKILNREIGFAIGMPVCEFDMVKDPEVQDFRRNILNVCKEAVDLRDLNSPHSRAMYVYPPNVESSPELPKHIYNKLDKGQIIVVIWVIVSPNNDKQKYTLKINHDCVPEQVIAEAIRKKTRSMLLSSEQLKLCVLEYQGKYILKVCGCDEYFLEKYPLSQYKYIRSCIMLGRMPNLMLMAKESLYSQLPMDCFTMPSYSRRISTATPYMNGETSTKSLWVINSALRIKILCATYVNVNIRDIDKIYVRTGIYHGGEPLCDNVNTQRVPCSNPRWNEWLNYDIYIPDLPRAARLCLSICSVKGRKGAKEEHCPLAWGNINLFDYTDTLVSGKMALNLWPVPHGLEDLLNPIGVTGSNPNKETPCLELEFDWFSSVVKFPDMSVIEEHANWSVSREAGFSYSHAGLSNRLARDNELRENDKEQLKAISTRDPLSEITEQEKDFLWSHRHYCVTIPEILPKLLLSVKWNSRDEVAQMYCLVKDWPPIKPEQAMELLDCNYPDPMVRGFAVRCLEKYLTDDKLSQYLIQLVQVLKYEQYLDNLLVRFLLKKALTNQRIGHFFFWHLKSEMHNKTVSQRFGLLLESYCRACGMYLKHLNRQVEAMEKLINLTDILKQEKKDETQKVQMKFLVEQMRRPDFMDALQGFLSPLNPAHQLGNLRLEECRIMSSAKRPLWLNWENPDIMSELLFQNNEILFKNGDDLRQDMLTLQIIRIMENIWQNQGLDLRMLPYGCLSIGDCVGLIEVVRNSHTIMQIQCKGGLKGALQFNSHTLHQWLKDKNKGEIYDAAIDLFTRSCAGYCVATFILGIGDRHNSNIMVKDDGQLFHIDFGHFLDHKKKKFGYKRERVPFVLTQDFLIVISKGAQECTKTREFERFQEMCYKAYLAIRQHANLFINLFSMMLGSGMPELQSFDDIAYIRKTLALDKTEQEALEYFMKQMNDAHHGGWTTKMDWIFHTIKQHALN
How it was run: as §1

PIP5K2C = biological target: T4, PIP5K2C (Homo sapiens, UniProt Q8TBX8); settings: 10 μM compound
T4 construct: purchased KinomeScan, a division of Ambit Biosciences
T4 sequence (Q8TBX8 1-421): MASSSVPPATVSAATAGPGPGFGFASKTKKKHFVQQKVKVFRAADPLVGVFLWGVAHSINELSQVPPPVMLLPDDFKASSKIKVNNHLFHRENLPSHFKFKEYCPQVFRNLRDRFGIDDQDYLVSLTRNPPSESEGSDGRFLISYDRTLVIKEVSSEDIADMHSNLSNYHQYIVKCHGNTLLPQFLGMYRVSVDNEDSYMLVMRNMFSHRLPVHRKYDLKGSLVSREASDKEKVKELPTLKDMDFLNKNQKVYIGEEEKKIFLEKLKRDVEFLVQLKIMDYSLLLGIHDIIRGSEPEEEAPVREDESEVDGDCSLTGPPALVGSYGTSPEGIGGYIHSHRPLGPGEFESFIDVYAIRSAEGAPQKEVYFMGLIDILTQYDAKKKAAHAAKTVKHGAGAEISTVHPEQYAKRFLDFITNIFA
How it was run: as §1

MEK5 = biological target: T5, MEK5 (Homo sapiens, UniProt Q13163); settings: 10 μM compound
T5 construct: purchased KinomeScan, a division of Ambit Biosciences
T5 sequence (Q13163 1-448): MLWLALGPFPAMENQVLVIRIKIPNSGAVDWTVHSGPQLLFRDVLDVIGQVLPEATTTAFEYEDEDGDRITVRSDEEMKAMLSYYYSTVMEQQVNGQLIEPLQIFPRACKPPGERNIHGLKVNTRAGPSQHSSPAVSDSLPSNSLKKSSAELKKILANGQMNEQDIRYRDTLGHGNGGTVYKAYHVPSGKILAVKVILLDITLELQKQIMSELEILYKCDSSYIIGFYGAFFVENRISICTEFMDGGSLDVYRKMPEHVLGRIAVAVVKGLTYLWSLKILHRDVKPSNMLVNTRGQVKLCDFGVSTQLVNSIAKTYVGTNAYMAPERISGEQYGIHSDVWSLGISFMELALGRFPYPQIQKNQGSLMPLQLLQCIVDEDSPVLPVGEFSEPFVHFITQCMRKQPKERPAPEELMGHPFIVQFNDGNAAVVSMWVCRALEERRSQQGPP
How it was run: as §1

CDK8 = biological target: T6, CDK8 (Homo sapiens, UniProt P49336); settings: for inhibition of CDK8: 10 μM; for POC ligand binding, CDK8: 10 μM compound; for Kd: read-out: CDK8 inhibition (Kd)
T6 construct: purchased KinomeScan, a division of Ambit Biosciences
T6 sequence (P49336 whole entry): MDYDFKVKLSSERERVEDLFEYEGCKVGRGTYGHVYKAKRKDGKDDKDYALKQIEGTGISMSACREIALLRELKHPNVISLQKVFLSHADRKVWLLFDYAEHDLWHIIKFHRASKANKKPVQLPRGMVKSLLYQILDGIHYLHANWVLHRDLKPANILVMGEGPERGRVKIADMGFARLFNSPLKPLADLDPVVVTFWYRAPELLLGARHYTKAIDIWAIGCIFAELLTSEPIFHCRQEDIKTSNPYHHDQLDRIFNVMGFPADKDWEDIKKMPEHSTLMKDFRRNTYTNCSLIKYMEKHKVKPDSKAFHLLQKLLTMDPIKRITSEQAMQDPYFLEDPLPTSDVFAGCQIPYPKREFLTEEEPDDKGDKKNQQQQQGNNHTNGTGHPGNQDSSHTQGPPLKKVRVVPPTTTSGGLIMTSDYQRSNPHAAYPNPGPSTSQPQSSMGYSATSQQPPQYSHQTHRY
How it was run: as §1

CSNK1G2 = biological target: T7, CSNK1G2 (Homo sapiens, UniProt P78368); settings: 10 μM compound
T7 construct: purchased KinomeScan, a division of Ambit Biosciences
T7 sequence (P78368 whole entry): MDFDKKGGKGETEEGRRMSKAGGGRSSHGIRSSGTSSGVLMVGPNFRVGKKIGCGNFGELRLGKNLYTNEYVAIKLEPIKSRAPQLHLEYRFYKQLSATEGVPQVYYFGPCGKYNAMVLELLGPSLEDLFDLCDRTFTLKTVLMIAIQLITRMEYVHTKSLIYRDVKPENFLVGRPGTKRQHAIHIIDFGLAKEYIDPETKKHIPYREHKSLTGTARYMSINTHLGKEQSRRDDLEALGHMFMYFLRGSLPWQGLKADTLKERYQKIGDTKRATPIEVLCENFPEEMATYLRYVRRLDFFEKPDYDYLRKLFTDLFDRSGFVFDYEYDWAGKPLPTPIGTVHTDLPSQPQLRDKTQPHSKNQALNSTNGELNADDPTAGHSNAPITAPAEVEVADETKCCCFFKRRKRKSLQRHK
How it was run: as §1

T1 sequence (O75716 whole entry): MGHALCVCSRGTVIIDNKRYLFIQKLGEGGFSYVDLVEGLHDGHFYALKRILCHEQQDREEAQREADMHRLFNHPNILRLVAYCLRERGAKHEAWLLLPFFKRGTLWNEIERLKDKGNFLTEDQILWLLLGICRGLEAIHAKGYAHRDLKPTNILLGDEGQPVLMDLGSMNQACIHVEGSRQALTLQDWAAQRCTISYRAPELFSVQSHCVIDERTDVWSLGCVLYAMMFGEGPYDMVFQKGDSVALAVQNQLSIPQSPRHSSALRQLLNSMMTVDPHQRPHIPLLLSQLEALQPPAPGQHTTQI

Row | Compound | POC ligand binding, STK16 (STK16) | POC ligand binding, FLT3 (D835Y) (FLT3 (D835Y)) | POC ligand binding, PIK3CA (I800L) (PIK3CA (I800L)) | POC ligand binding, PIP5K2C (PIP5K2C) | POC ligand binding, MEK5 (MEK5) | inhibition of CDK8 (CDK8) | POC ligand binding, CDK8 (CDK8) | Kd (CDK8) | POC ligand binding, CSNK1G2 (CSNK1G2) | POC ligand binding, STK16 (STK16; 10 µM) | POC ligand binding, FLT3 (D835Y) (FLT3 (D835Y); 10 µM) | POC ligand binding, PIK3CA (I800L) (PIK3CA (I800L); 10 µM) | POC ligand binding, PIP5K2C (PIP5K2C; 10 µM) | POC ligand binding, MEK5 (MEK5; 10 µM) | POC ligand binding, CDK8 (CDK8; 10 µM) | POC ligand binding, CSNK1G2 (CSNK1G2; 10 µM)
1 | N#Cc1ccc2ncnc(NCCc3ccc4ccccc4c3)c2c1 [compound 26] | 16 POC | 55 POC | 81 POC | 39 POC | 61 POC | ~100% | 0 POC | 570 nM | 57 POC | – | – | – | – | – | – | –
2 | N#Cc1ccc2ncnc(NCc3ccc4ccccc4c3)c2c1 [compound 43] | – | – | – | – | – | – | – | 240 nM | – | 30 POC | 76 POC | 87 POC | 4 POC | 41 POC | 1.6 POC | 53 POC
3 | N#Cc1ccc2ncnc(NCCc3ccccc3)c2c1 [compound 1] | 4.2 POC | 19 POC | 17 POC | 1.2 POC | 18 POC | > 99% | – | 830 nM | 16 POC | – | – | – | – | – | – | –
4 | CC(C)CNc1ncnc2ccc(C(F)(F)F)cc12 [compound 45] | 17 POC | 4.7 POC | 83 POC | 60 POC | 46 POC | – | 37 POC | – | 53 POC | – | – | – | – | – | – | –
5 | COc1ccc2ncnc(NCCc3ccccc3)c2c1 [compound 44] | 70 POC | 55 POC | 86 POC | 59 POC | 59 POC | – | 24 POC | – | 80 POC | – | – | – | – | – | – | –
6 | N#Cc1ccc2ncnc(NCc3ccc4ccccc4c3)c2c1 [compound 14] | – | – | – | – | – | – | – | 2500 nM | – | 2.4 POC | 32 POC | 62 POC | 16 POC | 13 POC | 0.4 POC | 43 POC
7 | N#Cc1ccc2ncnc(NCc3ccc(Cl)cc3)c2c1 [compound 20] | 25 POC | 69 POC | 73 POC | 2.4 POC | 62 POC | – | 0.15 POC | 240 nM | 62 POC | – | – | – | – | – | – | –
8 | CCCNc1ncnc2ccc(N3CCOCC3)cc12 [compound 46] | 80 POC | 19 POC | 83 POC | 61 POC | 17 POC | – | 100 POC | – | 55 POC | – | – | – | – | – | – | –
